In patent US20220275534A1, “Peptide Library Production Method” (The University of Tokyo, priority 2018, published 2022):
Positions of bridges follow the written chain, without caps; N, C: chain ends. Non-standard residues stand in square brackets, D forms with d. No end group written: not given here. *: point of attachment. prenyl = prenyl group added to Trp by KgpF, CC(C)=CC*

Key:
KgpF = experiment: Prenylation of artificial cyclic peptides with 160 μM KgpF at 0° C., 20 hours (Conditions 13/14 and 19/20; Examples 10, 14, 19; Tables 6 and 18); format: biochemical, Microcystis aeruginosa; set-up: key: 5: strong intensity; 4: medium intensity; 3: weak intensity; 2: very weak intensity; 1: no peak; N/A: not observed; details: for MALDI-TOF-MS peak intensity, Number of additions 1 / MALDI-TOF-MS peak intensity, Number of additions 2 / MALDI-TOF-MS peak intensity, Number of additions 0 / MALDI-TOF-MS peak intensity, Number of additions 3: Table 6, 160 μM KgpF, 2 mM DMAPP, 0° C., 20 hours; for MALDI-TOF-MS peak intensity, Number of additions 1: 1 prenyl added; for MALDI-TOF-MS peak intensity, Number of additions 2: 2 prenyl added; for MALDI-TOF-MS peak intensity, Number of additions 0: unmodified peptide peak; for MALDI-TOF-MS peak intensity, Number of additions 3: 3 prenyl added
Chain of KgpF (as listed by the source): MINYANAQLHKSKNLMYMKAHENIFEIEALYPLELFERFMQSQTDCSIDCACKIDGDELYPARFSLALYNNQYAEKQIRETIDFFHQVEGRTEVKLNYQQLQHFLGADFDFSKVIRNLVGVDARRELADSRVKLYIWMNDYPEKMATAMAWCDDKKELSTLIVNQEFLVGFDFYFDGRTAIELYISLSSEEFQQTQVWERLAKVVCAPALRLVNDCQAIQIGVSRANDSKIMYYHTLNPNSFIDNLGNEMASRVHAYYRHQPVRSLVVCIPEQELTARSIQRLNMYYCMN
Protocol: The artificial cyclic peptides Clone-M1 to M9 shown below were obtained by translation and synthesis in the artificial translation system (Conditions 13) developed by the present inventors. The peptides thus obtained were then reacted with 160 μM KgpF in the system shown in (Conditions 14) at 0° C. for 20 hours.
(Conditions 13) • FIT system: v8s/v11.0 • 19aa-Met: 0.5 mM • ClAc-D-Tyr-tRNA^fMetCUA: 90 μM • Reaction: 37° C., 60 min. • Scale: 2.5 μL scale
After the above reaction was performed, the reaction product was incubated at 25° C. for 12 minutes.
Then, a cyclization reaction was performed under the following conditions. • Translated mixture amount: 2.5 μL (mixture obtained by the above reaction) • EDTA: 18 mM • Reaction: 42° C., 60 min. • Scale: 2.75 μL scale
(Conditions 14) • Translated mixture amount: 2.75 μL (mixture obtained under (Conditions 13)) • KOH: 6.0 mM • Mg(OAc)2: 9.0 mM • Tris-HCl (pH 8.3) 15 mM • KgpF: 160 μM • DMAPP: 2 mM • Reaction: 0° C., 20 hours
The artificial cyclic peptides shown below were obtained by translation and synthesis in the artificial translation system (Conditions 19) developed by the present inventors. The peptides thus obtained were then reacted with 160 μM KgpF in the system shown in (Conditions 20) at 0° C. for 20 hours.
(Conditions 19) • FIT system: v8s/11.0 • 19aa-Met: 0.5 mM • ClAc-D-Tyr-tRNA^fMetCUA: 90 μM • Reaction: 37° C., 60 min. • Scale: 2.5 μL scale
(Conditions 20) • Translated mixture amount: 2.75 μL (mixture obtained under (Conditions 19)) • KOH: 6.0 mM • Mg(OAc)2: 9.0 mM • Tris-HCl (pH 8.3): 15 mM • KgpF: 160 μM • DMAPP: 2 mM • Reaction: 0° C., 20 hours
Then, the compound library was provided for a step of screening cyclic peptides having interaction with an enzyme MetAP1 (Human) as in the scheme shown in FIG. 8. It has been confirmed that with regards to some of the peptides shown in FIG. 10, peptides having these sequences are modified by prenylation as shown in Table 18 by bringing them into contact with KgpF under conditions shown in (Conditions 13) and (Conditions 14).

OltF v 2.1 = experiment: Modification test of thioether-closed artificial cyclic peptides with 9.13 μM OltF v 2.1 (Example 16; Tables 11 and 12); format: biochemical, Planktothrix; set-up: key: 5: strong intensity; 4: medium intensity; 3: weak intensity; 2: very weak intensity; 1: no peak; N/A: not observed; details: OltF v 2.1 9.13 μM, DMAPP 2 mM, 37° C., 18 hours
Chain of OltF v 2.1 (as listed by the source): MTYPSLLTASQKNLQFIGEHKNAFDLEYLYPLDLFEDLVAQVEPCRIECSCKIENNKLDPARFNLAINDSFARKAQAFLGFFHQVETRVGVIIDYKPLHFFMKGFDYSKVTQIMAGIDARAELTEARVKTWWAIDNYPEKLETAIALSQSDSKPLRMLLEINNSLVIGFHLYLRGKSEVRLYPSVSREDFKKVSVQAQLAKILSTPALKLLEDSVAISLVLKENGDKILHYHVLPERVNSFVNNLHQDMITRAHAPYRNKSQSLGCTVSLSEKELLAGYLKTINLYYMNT
Protocol: The artificial cyclic peptides shown in Table 11 and Table 12 were obtained by translation and synthesis in the artificial translation system (Conditions 23) developed by the present inventors. The peptides thus obtained were then reacted with 9.13 μM OltF in the system shown in (Conditions 24) at 37° C. for 18 hours. It is to be noted that OltF v 2.1 is an enzyme prepared from OltF used in (Conditions 22) while changing a purification manner.
(Conditions 23) • FIT system: v8s/v11.1 • 19aa-Met: 0.5 mM • ClAc-D or L-Tyr-tRNA^fMetCUA: 90 μM • Reaction: 37° C., 60 min. • Scale: 2.5 μL scale
(Conditions 24) • Translated mixture amount: 2.5 μL (mixture obtained under (Conditions 23)) • OltF v 2.1: 9.13 μM • DMAPP: 2 mM • Reaction: 37° C., 18 hours

[1] = Table 18, Conditions 13 and 14 (160 μM KgpF, 0° C., 20 hours), NSGGVS added to C terminal

Row | Substance | MALDI-TOF-MS peak intensity, Number of additions 1 (KgpF) | MALDI-TOF-MS peak intensity, Number of additions 2 (KgpF) | MALDI-TOF-MS peak intensity, Number of additions 0 (KgpF) | Peak intensity, The number of prenyl groups added 0 (OltF v 2.1; Table 12) | Peak intensity, The number of prenyl groups added 1 (OltF v 2.1; Table 12) | other results
1 | Clone-M1: artificial cyclic peptide containing a plurality of Trps ([dY]LRLNHTWSTWTSC; thioether (positions not given here); not fully specified (N-terminus, bridges); also: cyclic) | 1 | 5 | 1 |  |  | 
2 | Clone-M2: artificial cyclic peptide containing a plurality of Trps (Ac-[dY]SAWHGKDNYDWFC; thioether (positions not given here); not fully specified (bridges)) | 5 | 1 | 1 |  |  | 
3 | Clone-M3: artificial cyclic peptide containing a plurality of Trps (Ac-[dY]SWSPAWVRQADIC; thioether (positions not given here); not fully specified (bridges)) | 1 | 4 | 1 |  |  | 
4 | Clone-M4: artificial cyclic peptide containing a plurality of Trps (Ac-[dY]RVSNTWWQRHRWC; thioether (positions not given here); not fully specified (bridges)) | 4 | 1 | 1 |  |  | MALDI-TOF-MS peak intensity, Number of additions 3 (KgpF): 1
5 | Clone-M5: artificial cyclic peptide containing a plurality of Trps (Ac-[dY]LWSKNSQPWPESC; thioether (positions not given here); not fully specified (bridges)) | 5 | 1 | 3 |  |  | 
6 | Clone-M6: artificial cyclic peptide containing a plurality of Trps (Ac-[dY]ILSQENHVWSLWC; thioether (positions not given here); not fully specified (bridges)) | 5 | 5 | 1 |  |  | 
7 | Clone-M7: artificial cyclic peptide containing a plurality of Trps (Ac-[dY]LWVLRSDNTPWVC; thioether (positions not given here); not fully specified (bridges)) | 4 | 5 | 1 |  |  | 
8 | Clone-M8: artificial cyclic peptide containing a plurality of Trps (Ac-[dY]THEWPWRTGWTRC; thioether (positions not given here); not fully specified (bridges)) | 1 | 5 | 1 |  |  | MALDI-TOF-MS peak intensity, Number of additions 3 (KgpF): 1
9 | Clone-M9: artificial cyclic peptide containing a plurality of Trps (Ac-[dY]SFHWGLAVWDHNC; thioether (positions not given here); not fully specified (bridges)) | 1 | 5 | 1 |  |  | 
10 | DNT034 (Ac-[dY]NNRERGSDYFWLPPC; thioether (positions not given here); not fully specified (bridges)) |  |  |  | 1 | 5 | 
11 | DNT057 (Ac-[dY]RQFNRRTHYFWLPDC; thioether (positions not given here); not fully specified (bridges)) |  |  |  | 1 | 5 | 
12 | DNT061 (Ac-[dY]NNRERGSDFFWFFPC; thioether (positions not given here); not fully specified (bridges)) |  |  |  | 2 | 5 | 
13 | DNT062 (Ac-[dY]NNRERGSDGGWGGPC; thioether (positions not given here); not fully specified (bridges)) |  |  |  | 3 | 5 | 
14 | DNT063 (Ac-[dY]NNRERGSDYYWYYPC; thioether (positions not given here); not fully specified (bridges)) |  |  |  | 2 | 5 | 
15 | DNT065 (Ac-[dY]NNRERGSDNNWNNPC; thioether (positions not given here); not fully specified (bridges)) |  |  |  | 3 | 5 | 
16 | DNT066 (Ac-[dY]NNRERGSDVVWVVPC; thioether (positions not given here); not fully specified (bridges)) |  |  |  | 4 | 5 | 
17 | DNT070 ({CH2CO}-[dY]ISWNEFNSYFWLPITC; thioether N-17 (inferred); not fully specified) |  |  |  | 1 | 5 | Peak intensity, The number of prenyl groups added 2 (OltF v 2.1; Table 12): 1
18 | Met9: prenylated cyclic peptide identified by screening with MetAP1 as a target (Ac-[dY]KRKNCLVHVW(prenyl)HQCNSGGVS; thioether (positions not given here); not fully specified (C-terminus)) |  |  |  |  |  | Peak intensity, The number of prenyl groups added 0 (KgpF; [1]): 1; Peak intensity, The number of prenyl groups added 1 (KgpF; [1]): 5
19 | Met11: cyclic peptide SEQ ID NO: 363 identified by screening with MetAP1 as a target ({CH2CO}-[dY]HTDPFKAWHRRSCNSG; thioether N-14 (inferred); not fully specified) |  |  |  |  |  | Peak intensity, The number of prenyl groups added 0 (KgpF; [1]): 1; Peak intensity, The number of prenyl groups added 1 (KgpF; [1]): 5
20 | Met12: prenylated cyclic peptide identified by screening with MetAP1 as a target ({CH2CO}-[dY]YIIW(prenyl)HRHRIMTVCNSGGVS; thioether N-14 (inferred); not fully specified (C-terminus); also: C-terminus linked to its mRNA (mRNA display)) |  |  |  |  |  | Peak intensity, The number of prenyl groups added 0 (KgpF; [1]): 3; Peak intensity, The number of prenyl groups added 1 (KgpF; [1]): 4
21 | Met13: cyclic peptide SEQ ID NO: 364 identified by screening with MetAP1 as a target ({CH2CO}-[dY]VTWKGPYRWRVCNSG; thioether N-13 (inferred); not fully specified) |  |  |  |  |  | Peak intensity, The number of prenyl groups added 0 (KgpF; [1]): 1; Peak intensity, The number of prenyl groups added 1 (KgpF; [1]): 5; Peak intensity, The number of prenyl groups added 2 (KgpF; [1]): 1
22 | YG288 ({CH2CO}-[dY]SNFRIWRYSNSSC; thioether N-14 (inferred)) |  |  |  |  |  | Peak intensity, The number of prenyl groups added 0 (OltF v 2.1; Table 11): 1; Peak intensity, The number of prenyl groups added 1 (OltF v 2.1; Table 11): 5
23 | YG289 ({CH2CO}-[dY]HDYRIWRYHTYPC; thioether N-14 (inferred)) |  |  |  |  |  | Peak intensity, The number of prenyl groups added 0 (OltF v 2.1; Table 11): 1; Peak intensity, The number of prenyl groups added 1 (OltF v 2.1; Table 11): 5
